Laboratory results from US20070003531A1, “Methods for improving immunotherapy by enhancing survival of antigen-specific cytotoxic T lymphocytes” (University of Connecticut, priority 2005, published 2007).

Experiments:
[1] = system: PARP cleavage in Jurkat cells; test: PARP cleavage in staurosporine treated Jurkat cells (immunoblot); type: cell-based, human
Description: FIG. 1. […] (A) Effect of the JNK inhibitor SP600125 on AICD in the MART-127-35 epitope specific CTL. Histogram represents FACS analysis of the percent of MART-127-35 epitope specific CTLs that were tetramer positive and annexin negative after restimulation with MAGE-3271-279 control peptide (M3) pulsed T2 cells or MART-127-35 peptide (M1) pulsed T2 cells either alone or re-stimulated after pre-incubation with JNK inhibitor SP600125, p38-kinase inhibitor SB203580, ERK1/2 inhibitor PD98059 or caspase-inhibitor z-VAD-fink. MAGE-3271-279. (B) JNK activation results in phosphorylation of c-Jun during AICD in CTL that is blocked by SP600125. Immunoblots show analyses of CTL extracts probed with anti-phosphor-c-Jun, anti-c-Jun, and anti-actin antibodies. […] (i) Jurkat cells were treated with PMA+ionomycin in the absence or presence of SP600125 and JNK activation (c-Jun phosphorylation) was assessed with anti-phospho-c-Jun antibody. […] (ii) Jurkat cells were treated with Staurosporine for 1 and 4 hrs in the absence (S) or presence of caspase inhibitor, z-VAD-fmk (CI), JNK inhibitor, SP600125 (SP) or ERK1/2 inhibitor PD98059 (PD) and cleavage of PARP was detected by immunoblotting, using actin as a loading control. […] Percent annexin positive cells in all samples were quantified by FACS analysis and shown below the blot […]

Jurkat cells = test: Staurosporine-induced death of Jurkat cells (annexin FACS); type: cell-based, human; details: annexin positive cells by FACS
Description: FIG. 1. […] (A) Effect of the JNK inhibitor SP600125 on AICD in the MART-127-35 epitope specific CTL. Histogram represents FACS analysis of the percent of MART-127-35 epitope specific CTLs that were tetramer positive and annexin negative after restimulation with MAGE-3271-279 control peptide (M3) pulsed T2 cells or MART-127-35 peptide (M1) pulsed T2 cells either alone or re-stimulated after pre-incubation with JNK inhibitor SP600125, p38-kinase inhibitor SB203580, ERK1/2 inhibitor PD98059 or caspase-inhibitor z-VAD-fink. MAGE-3271-279. (B) JNK activation results in phosphorylation of c-Jun during AICD in CTL that is blocked by SP600125. Immunoblots show analyses of CTL extracts probed with anti-phosphor-c-Jun, anti-c-Jun, and anti-actin antibodies. […] (i) Jurkat cells were treated with PMA+ionomycin in the absence or presence of SP600125 and JNK activation (c-Jun phosphorylation) was assessed with anti-phospho-c-Jun antibody. […] (ii) Jurkat cells were treated with Staurosporine for 1 and 4 hrs in the absence (S) or presence of caspase inhibitor, z-VAD-fmk (CI), JNK inhibitor, SP600125 (SP) or ERK1/2 inhibitor PD98059 (PD) and cleavage of PARP was detected by immunoblotting, using actin as a loading control. […] Percent annexin positive cells in all samples were quantified by FACS analysis and shown below the blot

[2] = system: MART-127-35 epitope specific human primary CTL; test: AICD induction and quantitation in epitope specific primary CTL (tetramer/annexin V FACS); type: cell-based; details: pre-incubation about 45 min, restimulation with MART-127-35 peptide pulsed T2 cells, kinase inhibitors 25 μM, z-VAD-fmk 100 μM, Fc chimeras 10 μg/ml
Description: FIG. 10. Effect of external death receptor blockade and MAP kinase inhibitors on AICD in the epitope specific CTLs upon secondary encounter of the cognate epitope. The CTLs were pre-incubated at optimal concentration for about 45 min. at about 37° C. with pan caspase inhibitor z-VAD-fmk (100 μM); human Fas/Fc chimera, human TNF-RI/Fc chimera, human TRAIL-RI/Fc chimera, human TRAIL-RII/Fc chimera and human IFN-γ RI/Fc chimeric proteins (10 μg/ml); p38 kinase inhibitor SB203580, JNK inhibitor anthra[1,9-cd]pyrazol-6(2H)-one (SP600125), […] inhibitor PD98059 (25 μM). Then the pretreated as well as untreated CTLs were incubated with T2 cells either alone or loaded with peptide. About 4 hours after secondary exposure cells were stained for determining: (A) Number of tetramer^+ cells out of the CD8^+ T cells [Top panel]; number of tetramer^+/Annexin V^+ and tetramer^+/Annexin^− populations [Bottom panel]. […] (B) Effect of the MAP kinase inhibitors on IFN-γ response by the effector cells.
AICD induction and quantitation. AICD in the human primary CTL primed and expanded specifically for melanoma epitope MART-127-35 was induced by re-exposure of the CTLs to MART-127-35 peptide (1 μg/ml) as reported previously. Staurosporine mediated death was induced by exposure of CTL to 1 μM staurosporine for 4 hr. Quantitation of AICD and the effects of various inhibitors on AICD of CTLs, were carried out by annexin-V staining followed by FACS analyses as reported previously.
In test whether or not the epitope specific primary CTLs undergo AICD, the activated CTLs were exposed to peptide [1 μg/ml] loaded T2 cells (Effector: Target=100) at different time points of the cultures. Thereafter, the evidence of apoptosis was determined by flow cytometry with triple color staining (CD8, MART-127-35/HLA-A2 tetramer and annexin V) at different time points (4-18 h). Experiments were carried out in triplicate wells and significance was calculated by One-way analysis of variance (ANOVA) using Sigma Stat statistical software, Chicago, Ill.
To evaluate the effect of various agents in modulating AICD, the CTLs were pre-incubated with various compounds at optimal concentration for 45 min. at 37° C. and then exposed to T2 cells alone or loaded with peptide.

[3] = system: MART-127-35 epitope specific primary CTL; test: DNA fragmentation analysis (agarose gel electrophoresis); type: cell-based, human; details: 1 μM staurosporine for 4 hr
Description: Standard 2% agarose gel-electrophoresis (panel i) and pulse field DNA gel electrophoresis (panel ii) of: CTL in steady state (C) and after restimulation by the cognate peptide (M1).
DNA fragmentation analysis. DNA fragmentation was assessed by measuring single stranded nick generation, using single stranded DNA nick specific antibody (Alexis Biochemicals, CA, USA) with flow-cytometry and immunofluorescence according to published protocols. Antibody-stained cells were counterstained with 0.1 μg/ml DAPI in PBS for 10 min. Agarose gel electrophoresis was used to detect small oligosomal DNA fragmentation and pulse field electrophoresis (Bio-Rad CHEF-DRIII) was used (6 V/cm, 20-60 sec pulse overnight) to detect large-scale DNA fragmentation.

Mart-1 primary CTLs = test: Mitochondrial transmembrane potential (DiOC6 staining); type: cell-based, human; details: induced by re-stimulation with cognate peptide; data not shown
Description: (§1) FIG. 12. Effect of antigen specific secondary stimulation on mitochondrial transmembrane membrane potential (Δψm), pro- and anti-apoptotic protein and expression of cell surface molecules. (A) Differential effect on membrane polarization in Mart-1 primary CTLs (top panel) vs. Jurkat T cells (bottom panel). CTLs were incubated with T2 cells either alone or loaded with peptide. After overnight secondary exposure cells were stained with Mart-1 tetramer/CD8 and DiOC6. Histogram represents the fluorescence of DiOC6 in the gated antigen specific tetramer^+ population (top panel). Jurkat T cells were also analyzed for modulation of membrane potential after TCR-driven stimulation (bottom panel). Values represent the mean±SD of fluorescence intensity triplicates from one out of three separate experiment. *p<0.001 (One Way ANOVA). […] (C) Expression of different cell surface receptors for survival or death signal in antigen specific population upon secondary stimulation. Values on left upper corner represent the geometric mean of the fluorescence intensity for that particular marker when stimulated with T2/MAGE-3271-279 while that on right upper corner represent the geometric mean of the fluorescence intensity when stimulated with T2/MART-127-35.

[4] = system: Bcl family proteins in CTL; test: Western blot of Bcl family pro- and anti-apoptotic proteins in CTL after secondary stimulation; type: cell-based, human
Description: as §1
Washed cell pellets were lysed in RIPA buffer and a cytosolic fraction was prepared by spinning the lysate at 15,000 rpm. Proteins (20 μg/well) were separated on 15% SDS-PAGE, transferred onto nitrocellulose filters, probed with appropriate antibodies. Antibodies for Bcl-2, phospho Bcl-2, Bim, BCI-XL, Bax, Actin were purchased from Santa-Cruz Biotechnology, Santa-Cruz, Calif. Anti-Mcl-1 antibody was purchased from BD Pharmingen, Palo Alto, Calif. Blots were developed by HRP-tagged secondary antibody (Santa-Cruz Biotechnology, Santa-Cruz, Calif.) using a chemoluminescence kit (Amersham Biosciences, Buckinghamshire, U. K.).

z-VAD-fmk
effect on PARP cleavage induced by staurosporine ([1]; Jurkat cells, z-VAD-fmk 100 μM, staurosporine 1 μM): blocked
protection from staurosporine-induced death (Jurkat cells): protected
protection/rescue of CTL from AICD [2]: could not protect
protection/rescue of CTL from AICD ([2]; listed as z-VAD-fink): did not prevent

CN[C@@H]1C[C@H]2O[C@@](C)([C@@H]1OC)n1c3ccccc3c3c4c(c5c6ccccc6n2c5c31)C(=O)NC4 [staurosporine]
PARP cleavage ([1]; Jurkat cells treated with staurosporine (1 μM)): cleaved
oligosomal DNA fragmentation [3]: clearly evident

COc1cccc(-c2cc(=O)c3ccccc3o2)c1N [PD98059]
protection/rescue of CTL from AICD [2]: could not protect

C[S+]([O-])c1ccc(-c2nc(-c3ccncc3)c(-c3ccc(F)cc3)[nH]2)cc1 (centres unmarked) [SB203580]
level of hyper polarization of mitochondrial transmembrane potential (Mart-1 primary CTLs): decreased
BCI-XL expression [4]: non-selectively up regulated
Bcl-2 expression [4]: non-selectively up regulated
protection/rescue of CTL from AICD [2]: could not protect
